The values that follow come from ChEMBL document CHEMBL1201862, “PubChem BioAssay data set” (2004).

Molecules are shown by their SMILES.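 96-well plates; 48 h exposure; 5 concentrations. Endpoints by linear interpolation between flanking doses. Not reached: highest tested concentration assigned. GI50 is the concentration that inhibits growth by half.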 Calls of active or inactive are those of the source. Cut-off read from the data, not from the text of the source: active = GI50 up to about 1.1 µM and inactive = higher.

Test systems include A498; CAKI-1; CCRF-CEM; EKVX; HCT-15; K562; MDA-MB-231; MDA-N; NCI-H23; NCI-H522; NCI/ADR-RES; OVCAR-4; OVCAR-8; PC-3; RPMI-8226; RXF 393; SF-295; SK-MEL-28; SK-MEL-2; UACC-62.
Holding throughout (assay): DTP human tumour cell line panel, 48 h

On to `Cc1cc2c(=O)[nH]nc(N)c2c(N)n1`, for which the GI50 is > 100 µM (inactive) in the assay with A498; > 100 µM (inactive) in the assay with CAKI-1; > 100 µM (inactive) in the assay with CCRF-CEM; > 100 µM (inactive) in the assay with EKVX; > 100 µM in the assay with HCT-15; > 100 µM (inactive) in the assay with K562. For the same compound, the GI50 in the assay on MDA-MB-231, in the assay on MDA-N, in the assay with NCI-H23, with NCI-H522, in the assay on NCI/ADR-RES and in the assay with OVCAR-4 was > 100 µM (inactive) each time. In addition, the GI50 in the assay with OVCAR-8, in the assay on PC-3, with RPMI-8226, in the assay with RXF 393, in the assay with SF-295 and in the assay on SK-MEL-28 was > 100 µM (inactive) in each case. The GI50 with SK-MEL-2 and in the assay with UACC-62 was > 100 µM (inactive) in each case.
As for `Cc1cc(S(=O)(=O)NC2=NNC(C)CN2)c(S)cc1Cl` (stereo not given), the GI50 in the assay with A498 was 21.6 µM (inactive); with CAKI-1, 56.8 µM (inactive); in the assay on CCRF-CEM, 36.9 µM (inactive); in the assay with EKVX it was 96.6 µM (inactive); with HCT-15, 32.1 µM; in the assay on K562, 27 µM (inactive). The GI50 in the assay on MDA-MB-231 was 62.2 µM (inactive); with MDA-N it was 39.6 µM (inactive); in the assay on NCI-H23, 48.6 µM (inactive); with NCI-H522, 22.3 µM (inactive); in the assay on NCI/ADR-RES, 33.4 µM (inactive); in the assay on OVCAR-4, 44.1 µM (inactive). For the same compound, the GI50 is 32.1 µM (inactive) with OVCAR-8; 63.7 µM (inactive) with PC-3; 20.1 µM (inactive) with RPMI-8226; 50.9 µM (inactive) in the assay with RXF 393; 46.3 µM (inactive) in the assay with SF-295; 41.6 µM (inactive) in the assay with SK-MEL-28. In addition, the GI50 in the assay with SK-MEL-2 was 21 µM (inactive); in the assay on UACC-62, 51.2 µM (inactive).
As for `C=C1CCCC2[C@](C)(CC3=C(Cl)C(=O)C=C(OC)C3=O)C(C)CC[C@]12C` (stereo not given in full), the GI50 with A498 was 8.49 µM (inactive); in the assay on CAKI-1, 3.39 µM (inactive); in the assay on CCRF-CEM it was 1.45 µM (inactive); with EKVX, 2.02 µM (inactive); in the assay with HCT-15, 3.46 µM; in the assay with K562, 1.67 µM (inactive). The GI50 with MDA-MB-231 was 7.6 µM (inactive); in the assay on MDA-N, 6.95 µM (inactive); in the assay on NCI-H23, 4.49 µM (inactive); with NCI-H522 it was 1.16 µM (inactive); with NCI/ADR-RES, 3.99 µM (inactive); in the assay on OVCAR-4, 7.52 µM (inactive). The GI50 in the assay with OVCAR-8 is 2.93 µM (inactive); in the assay on PC-3 it was 1.58 µM (inactive); in the assay on RPMI-8226, 1.63 µM (inactive); in the assay with RXF 393 it was 5.42 µM (inactive); with SF-295, 7.41 µM (inactive); with SK-MEL-28, 7.31 µM (inactive). For the same compound, the figures for the GI50 in the assay on SK-MEL-2 and with UACC-62 were 6.64 µM (inactive) and 6.4 µM (inactive), respectively.
With `COc1c(C)c2c(c(=O)c3c(C)cccc3n2C)c2c1c(=O)c1c(C)cccc1n2C`, the GI50 with A498 was > 10 µM (inactive); in the assay on CAKI-1, > 10 µM (inactive); in the assay on CCRF-CEM it was > 10 µM (inactive); in the assay with EKVX, > 10 µM (inactive); with HCT-15, > 10 µM; in the assay on K562, > 10 µM (inactive). Further, the GI50 was > 10 µM (inactive) with MDA-MB-231; > 10 µM (inactive) in the assay with MDA-N; > 10 µM (inactive) in the assay on NCI-H23; > 10 µM (inactive) in the assay on NCI-H522; 9.18 µM (inactive) in the assay on NCI/ADR-RES; > 10 µM (inactive) with OVCAR-4. Moreover, the GI50 is 9.66 µM (inactive) in the assay with OVCAR-8; > 10 µM (inactive) with PC-3; 9.27 µM (inactive) in the assay on RPMI-8226; > 10 µM (inactive) in the assay on RXF 393; > 10 µM (inactive) in the assay with SF-295; > 10 µM (inactive) in the assay on SK-MEL-28. Besides, the GI50 in the assay with SK-MEL-2 and in the assay with UACC-62 was > 10 µM (inactive) throughout.

By GI50 is commonly meant the concentration that inhibits growth by half.
